Assays:
AP-1 = AP-1 assay: -73 collagenase promoter luciferase reporter in stable Jurkat T-cells, PMA/PHA stimulated; type: cell-based; details: Homo sapiens, PMA 5 ng/mL + PHA 1 μg/mL, 5 h
Method: (§1) Stable human Jurkat T-cells containing an NFκB binding site (from the MHC promoter) fused to a minimal SV-40 promoter driving luciferase expression were used in this experiment. Cells were split to 3×10^5 cells/mL every 2-3 days (cell concentration should not exceed 1×10^6 cells/mL to keep the cells proliferating in log phase). These cells were counted, resuspended in fresh medium containing 10% Serum-Plus at a density of 1×10^6 cells/mL and plated in 96 well round bottom plates (200 μL per well) 18 hours prior to starting the experiment.
(§2) Compounds of this invention, dissolved in dimethyl sulfoxide (3.3, 0.33 and 0.03 μg/mL), were then added to the 96 well plates containing the cells and the plates are incubated for 0.5 h at 37° C. Then 50 ng/mL of phorbol 12-myristate-13-acetate (PMA) and 1 μg/mL of phytohemagglutinin (PHA) was added to each well and the cells were incubated for an additional 5 h at 37° C. The plates were centrifuged at 2200 RPM for 3 minutes at room temperature and then the medium was removed. To each well was added 60 μL of cell lysis buffer and the plates were left at room temperature for 0.25 h. Then 40 μL of each cell extract was transferred to a black 96 well plate and 50 μL of luciferase substrate buffer was added. Luminescence was immediately measured using a Packard TopCount.
(§3) For AP-1, the assay was run as described above for NFκB except stable Jurkat T-cells were used that contained a the -73 collagenase promoter driving luciferase expression. In addition, the concentration of PMA used was 5 ng/mL.
The results of the above assays (expressed as IC50 's, μM) for representative compounds of this invention, as percent inhibition versus control, are presented in Table 3. β-actin was employed as a control […] indicating effects on transcription. The lack of β-actin activity evidences selectivity of the test compounds for the transcription factors AP-1 and NFκB.

IL-8 = assay: Inhibition of PMA/PHA-induced IL-8 production (ELISA, supernatants of NFκB reporter assay); type: cell-based; details: Homo sapiens
Method: as §1, §2
(§4) Cytokine levels in the supernatants (25-50 μL aliquots) were determined by ELISA.

IL-2 = assay: Inhibition of PMA/PHA-induced IL-2 production (ELISA, supernatants of AP-1 reporter assay); type: cell-based; details: Homo sapiens
Method: as §1, §2, §3, §4

NFκB = NFκB assay: luciferase reporter in stable Jurkat T-cells, PMA/PHA stimulated; type: cell-based; details: Homo sapiens, PMA 50 ng/mL + PHA 1 μg/mL, 5 h, read-out: NFkB IC50
Method: as §1, §2

mice [1] = details: Morris et al., Transplantation Proceedings 1990; cited from earlier work
mice [2] = details: Morris et al., Transplantation Proceedings 1990; cited from earlier work; remark: listed apart in the source

SMILES | IC50 (AP-1) | IC50 (IL-8) | IC50 (IL-2) | IC50 (NFκB) | activity in the delayed-type hypersensitivity (oxazolone) model (mice [1]) | activity in the popliteal lymph node (PLN) model (mice [2])
CC1=CC(=O)N(Nc2nc(-c3ccccc3)nc3ccccc23)C1=O [Compound 1, 4-(N-AMINOCITRACONAMIDO)-2-PHENYLQUINAZOLINE] | 200 nM | 2 nM | 10 nM | 100 nM | – | –
CC1=CC(=O)N(Nc2nc(-c3cccs3)nc3cnccc23)C1=O [Compound 2, 4-(N-AMINOCITRACONAMIDO)-2-(2'-THIENYL)PYRIDOPYRIMIDINE] | 100 nM | 100 nM | 700 nM | 100 nM | – | –
CC1=CC(=O)N(Nc2nc(C(F)(F)F)nc3ccccc23)C1=O [Compound 3, 4-(N-AMINOCITRACONAMIDO)-2-TRIFLUOROMETHYLQUINAZOLINE] | 100 nM | 30 nM | 50 nM | 10 nM | – | –
CC1=CC(=O)N(Nc2nc(C(F)(F)F)nc3cccc(C)c23)C1=O [Compound 5, 4-(N-AMINOCITRACONAMIDO)-5-METHYL-2-TRIFLUOROMETHYLQUINAZOLINE] | 500 nM | 2 nM | 20 nM | 200 nM | – | –
CC1=CC(=O)N(Nc2nc(C(F)(F)F)nc3cc(Cl)ccc23)C1=O [Compound 6, 4-(N-AMINOCITRACONAMIDO)-7-CHLORO-2-TRIFLUOROMETHYLQUINAZOLINE] | 300 nM | 50 nM | 500 nM | 100 nM | – | –
CC1=CC(=O)N(Nc2nc(C(F)(F)F)nc3cc(N4CCCCC4)ccc23)C1=O [Compound 7, 4-(N-AMINOCITRACONAMIDO)-7-(N-PIPERIDYL)-2-TRIFLUOROMETHYLQUNINAZOLINE] | – | 5 nM | 70 nM | 100 nM | – | –
CSc1ccc2nc(C(F)(F)F)nc(NN3C(=O)C=C(C)C3=O)c2c1 [Compound 8, 4-(N-AMINOCITRACONAMIDO)-6-METHYLTHIO-2-TRIFLUOROMETHYLQUNINAZOLINE] | 90 nM | 50 nM | 40 nM | 60 nM | – | –
CC1=CC(=O)N(Nc2nc(C(F)(F)F)nc3ccc(S(C)(=O)=O)cc23)C1=O [Compound 10, 4-(N-AMINOCITRACONAMIDO)-6-METHYLSULFONYL-2-TRIFLUOROMETHYLQUNINAZOLINE] | 10000 nM | – | – | 8000 nM | – | –
CC1=CC(=O)N(N(C)c2nc(-c3cccs3)nc3ccccc23)C1=O [Compound 12, 4-(N-METHYL-N-AMINOCITRACONAMIDO)-2-(2'-THIENYL)QUNINAZOLINE] | 1700 nM | – | – | 2200 nM | – | –
COc1cccc2nc(-c3cccs3)nc(N(C)N3C(=O)C=C(C)C3=O)c12 [Compound 19, 4-(N-METHYL-N-AMINOCITRACONAMIDO)-5-METHOXY-2-(2'-THIENYL)QUNINAZOLINE] | 70 nM | – | – | 100 nM | – | –
CC1=CC(=O)N(Nc2nc(-c3cccs3)nc3cccc(F)c23)C1=O [Compound 20, 4-(N-AMINOCITRACONAMIDO)-5-FLUORO-2-(2'-THIENYL)QUINAZOLINE] | 70 nM | – | – | 200 nM | – | –
O=P1(N(CCCl)CCCl)NCCCO1 (stereo not shown) [cyclophosphamide] | – | – | – | – | active | active

Continued, in another order:

IC50 (AP-1) | IC50 (IL-8) | IC50 (IL-2) | IC50 (NFκB) | SMILES | activity in the delayed-type hypersensitivity (oxazolone) model (mice [1]) | activity in the popliteal lymph node (PLN) model (mice [2])
10 nM | 50 nM | 120 nM | 10 nM | COc1cccc2nc(C(F)(F)F)nc(NN3C(=O)C=C(C)C3=O)c12 [Compound 4, 4-(N-AMINOCITRACONAMIDO)-5-METHOXY-2-TRIFLUOROMETHYLQUNINAZOLINE] | – | –
70 nM | – | – | 40 nM | CC1=CC(=O)N(Nc2nc(-c3cccs3)nc3ccccc23)C1=O [Compound 11, 4-(N-AMINOCITRACONAMIDO)-2-(2'-THIENYL)QUNINAZOLINE] | – | –
8 nM | – | – | 8 nM | COc1cccc2nc(-c3cccs3)nc(NN3C(=O)C=C(C)C3=O)c12 [Compound 13, 4-(N-AMINOCITRACONAMIDO)-5-METHOXY-2-(2'-THIENYL)QUINAZOLINE] | – | –
3 nM | – | – | 2 nM | COc1ccc2nc(-c3cccs3)nc(NN3C(=O)C=C(C)C3=O)c2c1 [Compound 14, 4-(N-AMINOCITRACONAMIDO)-6-METHOXY-2-(2'-THIENYL)QUNINAZOLINE] | – | –
20 nM | – | – | 10 nM | COc1ccc2c(NN3C(=O)C=C(C)C3=O)nc(-c3cccs3)nc2c1 [Compound 15, 4-(N-AMINOCITRACONAMIDO)-7-METHOXY-2-(2'-THIENYL)QUINAZOLINE] | – | –
20 nM | – | – | 20 nM | COc1cccc2c(NN3C(=O)C=C(C)C3=O)nc(-c3cccs3)nc12 [Compound 16, 4-(N-AMINOCITRACONAMIDO)-8-METHOXY-2-(2'-THIENYL)QUNINAZOLINE] | – | –
70 nM | – | – | 40 nM | COc1cc2nc(-c3cccs3)nc(NN3C(=O)C=C(C)C3=O)c2cc1OC [Compound 17, 4-(N-AMINOCITRACONAMIDO)-6,7-DIMETHOXY-2-(2'-THIENYL)QUINAZOLINE] | – | –
20 nM | – | – | 10 nM | COc1cc2c(NN3C(=O)C=C(C)C3=O)nc(-c3cccs3)nc2c(OC)c1OC [Compound 18, 4-(N-AMINOCITRACONAMIDO)-6,7,8-TRIMETHOXY-2-(2'-THIENYL)QUNINAZOLINE] | – | –
30 nM | – | – | 20 nM | CC1=CC(=O)N(Nc2nc(-c3cccs3)nc3cccc(Cl)c23)C1=O [Compound 21, 4-(N-AMINOCITRACONAMIDO)-5-CHLORO-2-(2'-THIENYL)QUINAZOLINE] | – | –
30 nM | – | – | 10 nM | CC1=CC(=O)N(Nc2nc(-c3cccs3)nc3cccc(C)c23)C1=O [Compound 22, 4-(N-AMINOCITRACONAMIDO)-5-METHYL-2-(2'-THIENYL)QUNINAZOLINE] | – | –
40 nM | – | – | 40 nM | CC1=CC(=O)N(Nc2nc(-c3cccs3)nc3cc(N(C)C)ccc23)C1=O [Compound 23, 4-(N-AMINOCITRACONAMIDO)-7-DIMETHYLAMINO-2-(2'-THIENYL)QUINAZOLINE] | – | –
